Assay results from patent US8815590B2, “Composition and method for differentiation of human embryonic stem cells” (Stem Cells for Safer Medicines Limited, priority 2009, dated 2014).

Legend:
Human ESCs [SHEF3] = assay: Differentiation towards definitive endoderm: immunostaining and RT-PCR of endodermal markers; assay type: cell-based; conditions: 2 μM
Method: Human ESCs [SHEF3] were maintained feeder-free on Matrigel® in chemically defined mTeSR1® media and treated with 2 μM 1M for the days indicated. (A) Expression of the endodermal markers FoxA2, Sox17 and HNF4α were analysed by immunofluorescence. Treatment with compound 1M led to expression of all markers after 7 days treatment. Scale bar represents 50 μm. (B) ESCs were harvested on day 7 following treatment with 1M for the indicated days. RNA was extracted and RT-PCR analyses performed using primers selective for the genes indicated. […] (C) BIO induces differentiation towards the DE. SHEF3 ESCs were treated with 2 μM BIO for the times indicated and immunostained with antibodies towards the endodermal markers FOXA2, SOX17 and HNF4α. (D) Compound 1L also induces differentiation towards the DE. SHEF1 ESCs were treated with 2 μM 1L for the times indicated and immunostained with antibodies towards the endodermal markers FOXA2 and HNF4α.
ESCs were cultured feeder-free on Matrigel®-coated plates in mTeSR1® media, supplemented with 2 μM compound 1M for 7 days with the media being refreshed every-other day. Definitive endoderm cultures were passaged with collagenase (1 mg/ml) and plated at a ratio of 1:10 on Matrigel® in KO DMEM supplemented with glutamine, penicillin/streptomycin, NEAA, 2% (v/v) KOSR, 10 ng/ml HGF (Peprotech) and 10 ng/ml FGF4 and cultured for a further 7 days with the media being refreshed every-other day. To allow for maturation of the HLCs, 10 ng/ml oncostatin M (Peprotech) and 10^−7 dexamethasone (SIGMA) were added to the above media and the cells were cultured for an additional 7 days with fresh media every-other day.
Total RNA was isolated and purified using TRIzol Reagent (Invitrogen), following the manufacturer's instructions. All RNA samples were treated with DNase I (Ambion) before cDNA synthesis to eliminate any contaminating genomic DNA. RNA (1 μg) was reverse transcribed into cDNA using Oligo(dT)15 (Promega) and SuperScript II (Invitrogen). Gene-specific PCR was carried out using primers and annealing temperatures outlined in Table 2.
ESCs were cultured on Matrigel®-coated lummox (Greiner Bio One) trays and fixed with 4% paraformaldehyde (PFA) for 20 minutes at room temperature. Cells were permeabilised in PBST (with 0.1% Triton X-100) and blocked in 10% blocking reagent (Roche) before incubating with primary antibodies in 2% blocking reagent overnight at 4° C. After washing in PBS, cells were incubated with FITC-conjugated secondary antibodies (Vector Labs) for 3 hours at room temperature. After further washing, the cells were stained with 4,6-diamidino-2-phenylindole (DAPI) (SIGMA), washed again and mounted in MOWIOL. […]

ESCs [SHEF1] [1] = assay: Flow cytometry of the DE marker CXCR4; assay type: cell-based, human; conditions: 2 μM 1M, 100 ng/ml Activin A, alone or in combination, 5 days
Method: (§1) (A) RNA was extracted from ESCs [SHEF1] cultured for 7 days in the presence of 2 μM 1M for the days indicated. RT-PCR analyses were performed using primers selective for the genes indicated. (B) ESCs [SHEF1] were treated with 2 μM 1M alone or in combination with 10 μM SB43125 (S) for the days indicated and RT-PCR performed on the extracted RNA. (C) ESCs [SHEF3] were treated with 1M alone or in combination with 100 ng/ml Activin A (A) for the days indicated and RT-PCR performed. (D). ESCs [SHEF1] were treated with 2 μM 1M, or 100 ng/ml ActivinA (A) alone or in combination with 1M for 5 days. Expression of the endoderm markers FoxA2 and HNF4α was analysed by immunofluorescence. The number of percent positive cells averaged from 3 fields of view +/−SD are indicated. Scale bar represents 50 μm. (E) ESCs [SHEF1] were treated with 2 μM 1M, or 100 ng/ml ActivinA (A) alone or in combination with 1M for 5 days. Expression of the DE marker CXCR4 was alaysed by flow cytometry.
ESCs were trypsinised (0.05% Trypsin-EDTA) for 10 minutes at 37° C. and resuspended in PBS containing 2% (v/v) FBS (FBS/PBS). […] Flow cytometry was performed using a FACSCanto cytometer (Becton Dickenson) and the data were analysed with FACSDiva software. […]

ESCs [SHEF1] [2] = assay: Immunofluorescence of endoderm markers FoxA2 and HNF4α, percent positive cells; assay type: cell-based, human; conditions: 5 days
Method: as §1
ESCs were cultured on Matrigel®-coated lummox (Greiner Bio One) trays and fixed with 4% paraformaldehyde (PFA) for 20 minutes at room temperature. Cells were permeabilised in PBST (with 0.1% Triton X-100) and blocked in 10% blocking reagent (Roche) before incubating with primary antibodies in 2% blocking reagent overnight at 4° C. After washing in PBS, cells were incubated with FITC-conjugated secondary antibodies (Vector Labs) for 3 hours at room temperature. After further washing, the cells were stained with 4,6-diamidino-2-phenylindole (DAPI) (SIGMA), washed again and mounted in MOWIOL. The following antibodies and dilutions were used: goat-anti-FoxA2 (1:100, R&D. Systems), mouse anti-Sox17 (1:50, R&D Systems), rabbit anti-HNF4α (1:100, Santa Cruz), rabbit anti-AFP (1:100, DAKO), rabbit anti-TTR (1:100, DAKO). Images were captured on a Zeiss 510 Meta confocal microscope using a 40× objective.

O=C1NC(=O)C2=C1c1cn(c3ccccc13)CCOCCOCCOCCOCCn1cc2c2ccccc21 [1M]
Differentiation towards the DE (immunostaining FOXA2, SOX17, HNF4α) (Human ESCs [SHEF3]; feeder-free on Matrigel in mTeSR1, up to 7 days): differentiating towards the DE in a time dependent manner | Expression of HNF4α and AFP (early hepatic lineage) (Human ESCs [SHEF3]; following 7 days treatment): expression of HNF4α and α-fetoprotein (AFP) was observed | CXCR4 expression by flow cytometry (ESCs [SHEF1] [1]): 53.0% | FOXA2 expressing cells in the entire population (ESCs [SHEF1] [2]; 2 μM 1M or 100 ng/ml Activin A): 35-40% | HNF4α-expressing cells (ESCs [SHEF1] [2]; 2 μM 1M or 100 ng/ml Activin A): 20% | FoxA2 positive cells in clusters of cells (ESCs [SHEF1] [2]; 2 μM, within clusters): 73%
